# Measurements from ChEMBL document CHEMBL5370585, “Exploration and Biological Evaluation of 1,3-Diamino-7H-pyrrol[3,2-f]quinazoline Derivatives as Dihydrofolate Reductase Inhibitors” (J Med Chem, 2023).
# Activity calls are given as the source filed them. No cut-off for these calls is given here.
# Legend:
# Staphylococcus aureus [1] = assay: Antibacterial activity against Staphylococcus aureus ATCC 29213 incubated for 16 to 18 hrs by CLSI based broth dilution method; format: functional; conditions: time 16-18 hrs
# Staphylococcus aureus [2] = assay: Antibacterial activity against methicillin-resistant Staphylococcus aureus ATCC 43300 incubated for 16 to 18 hrs by CLSI based broth dilution method; format: functional; conditions: time 16-18 hrs
# [3] = test system: Staphylococcus epidermidis; assay: Antibacterial activity against Staphylococcus epidermidis ATCC 12228 incubated for 16 to 18 hrs by CLSI based broth dilution method; format: functional; conditions: time 16-18 hrs
# Acinetobacter baumannii [4] = assay: Antibacterial activity against Acinetobacter baumannii ATCC 19606 incubated for 16 to 18 hrs by CLSI based broth dilution method; format: functional; conditions: time 16-18 hrs
# Enterococcus faecalis [5] = assay: Antibacterial activity against Enterococcus faecalis ATCC 29212 incubated for 16 to 18 hrs by CLSI based broth dilution method; format: functional; conditions: time 16-18 hrs
# Escherichia coli [6] = assay: Antibacterial activity against Escherichia coli ATCC 25922 incubated for 16 to 18 hrs by CLSI based broth dilution method; format: functional; conditions: time 16-18 hrs
# Escherichia coli [7] = assay: Antibacterial activity against Escherichia coli ATCC 25922 assessed as inhibition of bacterial growth at upto 8 times MIC measured upto 28 hrs by time kill curve assay; format: functional, organism-based
# Staphylococcus aureus [8] = assay: Antibacterial activity against methicillin-resistant Staphylococcus aureus ATCC 43300 assessed as inhibition of bacterial growth at upto 8 times MIC measured upto 28 hrs by time kill curve assay; format: functional, organism-based
# Staphylococcus aureus [9] = assay: Antibacterial activity against methicillin-sensitive Staphylococcus aureus 15-1 incubated for 16 to 18 hrs by CLSI based broth dilution method; format: functional; conditions: time 16-18 hrs
# Staphylococcus aureus [10] = assay: Antibacterial activity against methicillin-sensitive Staphylococcus aureus 15-2 incubated for 16 to 18 hrs by CLSI based broth dilution method; format: functional; conditions: time 16-18 hrs
# Staphylococcus aureus [11] = assay: Antibacterial activity against methicillin-sensitive Staphylococcus aureus ATCC 29213 incubated for 16 to 18 hrs by CLSI based broth dilution method; format: functional; conditions: time 16-18 hrs
# Staphylococcus aureus [12] = assay: Antibacterial activity against methicillin-sensitive Staphylococcus aureus ATCC 25923 incubated for 16 to 18 hrs by CLSI based broth dilution method; format: functional; conditions: time 16-18 hrs
# Staphylococcus aureus [13] = assay: Antibacterial activity against methicillin-resistant Staphylococcus aureus ATCC 33591 incubated for 16 to 18 hrs by CLSI based broth dilution method; format: functional; conditions: time 16-18 hrs
# Staphylococcus aureus [14] = assay: Antibacterial activity against vancomycin intermediate Staphylococcus aureus ATCC 700788 incubated for 16 to 18 hrs by CLSI based broth dilution method; format: functional; conditions: time 16-18 hrs
# Staphylococcus aureus [15] = assay: Antibacterial activity against vancomycin intermediate Staphylococcus aureus ATCC 700699 incubated for 16 to 18 hrs by CLSI based broth dilution method; format: functional; conditions: time 16-18 hrs
# Enterococcus faecalis [16] = assay: Antibacterial activity against Enterococcus faecalis EFA19-1 incubated for 16 to 18 hrs by CLSI based broth dilution method; format: functional; conditions: time 16-18 hrs
# Enterococcus faecalis [17] = assay: Antibacterial activity against Enterococcus faecalis EFA19-2 incubated for 16 to 18 hrs by CLSI based broth dilution method; format: functional; conditions: time 16-18 hrs
# Enterococcus = assay: Antibacterial activity against Vancomycin-resistant Enterococcus ATCC 51575 incubated for 16 to 18 hrs by CLSI based broth dilution method; format: functional; conditions: time 16-18 hrs
# Escherichia coli [18] = assay: Antibacterial activity against Escherichia coli ATCC BAA-2340 incubated for 16 to 18 hrs by CLSI based broth dilution method; format: functional; conditions: time 16-18 hrs
# Escherichia coli [19] = assay: Antibacterial activity against Escherichia coli ECO 15-1 incubated for 16 to 18 hrs by CLSI based broth dilution method; format: functional; conditions: time 16-18 hrs
# Klebsiella pneumoniae [20] = assay: Antibacterial activity against Klebsiella pneumoniae 15-1 assessed as reduction in microbial growth incubated for 16 to 18 hrs by CLSI based broth dilution method; format: functional; conditions: time 16-18 hrs
# Klebsiella pneumoniae [21] = assay: Antibacterial activity against Klebsiella pneumoniae ATCC 700603 assessed as reduction in microbial growth incubated for 16 to 18 hrs by CLSI based broth dilution method; format: functional; conditions: time 16-18 hrs
# Acinetobacter baumannii [22] = assay: Antibacterial activity against Acinetobacter baumannii ATCC 19606 assessed as reduction in microbial growth incubated for 16 to 18 hrs by CLSI based broth dilution method; format: functional; conditions: time 16-18 hrs
# Acinetobacter baumannii [23] = assay: Antibacterial activity against Acinetobacter baumannii 20-1 incubated for 16 to 18 hrs by CLSI based broth dilution method; format: functional; conditions: time 16-18 hrs
# Acinetobacter baumannii [24] = assay: Antibacterial activity against Acinetobacter baumannii 20-2 incubated for 16 to 18 hrs by CLSI based broth dilution method; format: functional; conditions: time 16-18 hrs
# Pseudomonas aeruginosa = assay: Antibacterial activity against Pseudomonas aeruginosa ATCC 27853 incubated for 16 to 18 hrs by CLSI based broth dilution method; format: functional; conditions: time 16-18 hrs
# Staphylococcus aureus [25] = assay: Antibacterial activity against Staphylococcus aureus ATCC 29213 incubated for 16 to 18 hrs in absence of human plasma by CLSI based broth dilution method; format: functional; conditions: time 16-18 hrs
# Staphylococcus aureus [26] = assay: Antibacterial activity against Staphylococcus aureus ATCC 29213 incubated for 16 to 18 hrs in presence of human plasma by CLSI based broth dilution method; format: functional; conditions: time 16-18 hrs
# Staphylococcus aureus [27] = assay: Antibacterial activity against methicillin-resistant Staphylococcus aureus ATCC 43300 incubated for 16 to 18 hrs in absence of human plasma by CLSI based broth dilution method; format: functional; conditions: time 16-18 hrs
# Staphylococcus aureus [28] = assay: Antibacterial activity against methicillin-resistant Staphylococcus aureus ATCC 43300 incubated for 16 to 18 hrs in presence of human plasma by CLSI based broth dilution method; format: functional; conditions: time 16-18 hrs
# Escherichia coli [29] = assay: Antibacterial activity against Escherichia coli ATCC 25922 incubated for 16 to 18 hrs in absence of human plasma by CLSI based broth dilution method; format: functional; conditions: time 16-18 hrs
# Escherichia coli [30] = assay: Antibacterial activity against Escherichia coli ATCC 25922 incubated for 16 to 18 hrs in presence of human plasma by CLSI based broth dilution method; format: functional; conditions: time 16-18 hrs
# [31] = biological target: T1, Dihydrofolate reductase (Homo sapiens) (UniProt P00374); assay: Inhibition of human DHFR at 1 uM incubated for 10 mins in presence of NADPH by colorimetry based analysis relative to control
# T1 sequence (whole entry): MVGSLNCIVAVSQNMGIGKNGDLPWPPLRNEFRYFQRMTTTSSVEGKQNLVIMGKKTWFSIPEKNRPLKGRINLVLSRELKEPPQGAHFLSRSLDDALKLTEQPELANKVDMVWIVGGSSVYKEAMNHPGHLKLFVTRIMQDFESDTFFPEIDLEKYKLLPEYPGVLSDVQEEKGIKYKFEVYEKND
# MCF7 = assay: Cytotoxicity against human MCF7 cells measured after 72 hrs by MTT assay; format: functional, cell-based; conditions: MCF7, 72 h
# HGC-27 = assay: Cytotoxicity against human HGC-27 cells measured after 72 hrs by MTT assay; format: functional, cell-based; conditions: HGC-27, 72 h
# HCT-116 = assay: Cytotoxicity against human HCT-116 cells measured after 72 hrs by MTT assay; format: functional, cell-based; conditions: HCT-116, 72 h
# HepG2 = assay: Cytotoxicity against human HepG2 cells measured after 72 hrs by MTT assay; format: functional, cell-based; conditions: HepG2, 72 h
# EMT6 [32] = assay: Antitumor activity against mouse EMT6 cells xenografted in ip dosed BALB/c mouse model assessed as delay in tumor progression administered every 3 days for 14 consecutive days; format: functional, organism-based; conditions: time 14.0 day
# [33] = Toxicity in BALB/c mouse xenografted with mouse EMT6 cells at 5 mg/kg, ip administered every 3 days for 14 consecutive days; format: organism-based; conditions: in vivo, 336 h, time 14 day
# [34] = Toxicity in BALB/c mouse xenografted with mouse EMT6 cells assessed as effect on body weight at 5 mg/kg, ip measured on day 1 (reference value: 18.5 +/-0.5g); format: organism-based; conditions: in vivo, 24 h, time 1 day
# [35] = Toxicity in BALB/c mouse xenografted with mouse EMT6 cells assessed as effect on body weight at 10 mg/kg, ip measured on day 1 (reference value: 18.5 +/-0.5g); format: organism-based; conditions: in vivo, 24 h, time 1 day
# [36] = Toxicity in BALB/c mouse xenografted with mouse EMT6 cells assessed as effect on body weight at 5 mg/kg, ip measured on day 14 (reference value: 21.6 +/-0.6g); format: organism-based; conditions: in vivo, 336 h, time 14 day
# [37] = Toxicity in BALB/c mouse xenografted with mouse EMT6 cells assessed as effect on body weight at 10 mg/kg, ip measured on day 14 (reference value: 21.6 +/-0.6g); format: organism-based; conditions: in vivo, 336 h, time 14 day
# EMT6 [38] = assay: Antitumor activity against mouse EMT6 cells xenografted in BALB/c mouse model assessed as tumor weight at 5 mg/kg,ip administered every 3 days for 14 consecutive days (reference value: 1.53 +/-0.26g); format: functional; conditions: time 14 day
# EMT6 [39] = assay: Antitumor activity against mouse EMT6 cells xenografted in BALB/c mouse model assessed as tumor weight at 10 mg/kg,ip administered every 3 days for 14 consecutive days (reference value: 1.53 +/-0.26g); format: functional; conditions: time 14 day
# EMT6 [40] = assay: Antitumor activity against mouse EMT6 cells xenografted in BALB/c mouse model assessed as tumor growth inhibition at 5 mg/kg,ip administered every 3 days for 14 consecutive days relative to control; format: functional; design: scale not given: the % may be the effect or the level left; conditions: time 14 day
# EMT6 [41] = assay: Antitumor activity against mouse EMT6 cells xenografted in BALB/c mouse model assessed as tumor growth inhibition at 10 mg/kg,ip administered every 3 days for 14 consecutive days relative to control; format: functional; design: scale not given: the % may be the effect or the level left; conditions: time 14 day
smiles,measurement,setting,value
Nc1nc(N)c2c(ccc3c2ccn3Cc2nc3ccccc3s2)n1,MIC,Staphylococcus aureus [1],0.06 mg/L
same,MIC,Staphylococcus aureus [2],0.016 mg/L
same,MIC,[3],≤ 0.004 mg/L
same,MIC,Acinetobacter baumannii [4],1 mg/L
same,MIC,Enterococcus faecalis [5],≤ 0.004 mg/L
same,MIC,Escherichia coli [6],0.03 mg/L
same,Activity,Escherichia coli [7],Active
same,Activity,Staphylococcus aureus [8],Active
same,MIC,Staphylococcus aureus [9],≤ 0.03 mg/L
same,MIC,Staphylococcus aureus [10],≤ 0.03 mg/L
same,MIC,Staphylococcus aureus [11],≤ 0.03 mg/L
same,MIC,Staphylococcus aureus [12],0.06 mg/L
same,MIC,Staphylococcus aureus [13],≤ 0.03 mg/L
same,MIC,Staphylococcus aureus [14],≤ 0.03 mg/L
same,MIC,Staphylococcus aureus [15],0.25 mg/L
same,MIC,Enterococcus faecalis [16],≤ 0.03 mg/L
same,MIC,Enterococcus faecalis [17],≤ 0.03 mg/L
same,MIC,Enterococcus,≤ 0.03 mg/L
same,MIC,Escherichia coli [18],> 64 mg/L
same,MIC,Escherichia coli [19],> 64 mg/L
same,MIC,Klebsiella pneumoniae [20],2 mg/L
same,MIC,Klebsiella pneumoniae [21],2 mg/L
same,MIC,Acinetobacter baumannii [22],1 mg/L
same,MIC,Acinetobacter baumannii [23],16 mg/L
same,MIC,Acinetobacter baumannii [24],1 mg/L
same,MIC,Pseudomonas aeruginosa,> 64 mg/L
same,MIC,Staphylococcus aureus [25],0.06 mg/L
same,MIC,Staphylococcus aureus [26],2 mg/L
same,MIC,Staphylococcus aureus [27],0.016 mg/L
same,MIC,Staphylococcus aureus [28],1 mg/L
same,MIC,Escherichia coli [29],0.03 mg/L
same,MIC,Escherichia coli [30],1 mg/L
same,inhibition,[31],96%
same,IC50,MCF7,0.11 µM
same,IC50,HGC-27,0.001 µM
same,IC50,HCT-116,0.002 µM
same,IC50,HepG2,0.034 µM
same,Activity,EMT6 [32],Dose-Dependent Effect
same,Activity,[33],Non-Toxic
same,Activity,[34],18.5 g
same,Activity,[35],18.6 g
same,Activity,[36],15.1 g
same,Activity,[37],14.3 g
same,Activity,EMT6 [38],0.41 g
same,Activity,EMT6 [39],0.44 g
same,Activity,EMT6 [40],72.9%
same,Activity,EMT6 [41],71.1%
